The values that follow come from patent US10336762B2 (priority 2017, dated 2019).

The subject of one assay is TNFα. Briefly: cells. To be noted: Homo sapiens, Monocyte, LPS-stimulated human monocytes, TNFα by TR-FRET; read-out: EC50 TNF. Format: cell-based, human. (In general: In TR-FRET formats the signal depends on donor and acceptor labels being close together.)
The next assay deals with IRAK4 enzyme (Homo sapiens (Human), UniProt Q9NWZ3). In words: biochemical. Format: biochemical. Conditions: IRAK4 enzyme, TR-FRET, 500 μM ATP.
Chain of IRAK4 enzyme (Q9NWZ3 whole entry): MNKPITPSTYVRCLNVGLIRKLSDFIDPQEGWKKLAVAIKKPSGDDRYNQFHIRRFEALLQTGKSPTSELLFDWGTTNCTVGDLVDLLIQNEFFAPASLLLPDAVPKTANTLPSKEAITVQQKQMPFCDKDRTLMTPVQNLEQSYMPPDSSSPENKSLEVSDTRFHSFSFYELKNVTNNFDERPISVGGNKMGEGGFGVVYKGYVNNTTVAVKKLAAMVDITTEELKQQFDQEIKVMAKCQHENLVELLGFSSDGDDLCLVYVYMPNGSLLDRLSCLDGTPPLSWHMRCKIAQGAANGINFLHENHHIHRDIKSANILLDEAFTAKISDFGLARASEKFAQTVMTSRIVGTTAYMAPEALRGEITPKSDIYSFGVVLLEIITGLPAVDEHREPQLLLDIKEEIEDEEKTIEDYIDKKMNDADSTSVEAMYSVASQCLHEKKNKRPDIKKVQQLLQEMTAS

The term EC50 denotes the concentration needed to bring the measured effect to its halfway point. Broadly, the IC50 is the concentration that gives 50% inhibition. The low end stands for higher potency, the high end for lower potency. As to `CC(C)(O)[C@H](F)CNC(=O)c1cnc(-c2ccc3cc(C#N)cnn23)cc1Nc1cnn([C@@H]2CNC[C@H]2F)c1` [Example 882, 6-(3-cyanopyrrolo[1,2-b]pyridazin-7-yl)-N-((R)-2-fluoro-3-hydroxy-3-methylbutyl)-4-((1-((3R,4R)-4-fluoro-pyrrolidin-3-yl)-1H-pyrazol-4-yl)amino) nicotinamide], the EC50 in the assay on TNFα is 22 nM. Moreover, the concentration for half-maximal inhibition (IC50) against IRAK4 enzyme was less than 1 nM.

Take `CC(C)(O)[C@H](F)CNC(=O)c1cnc(-c2ccc3cc(C#N)cnn23)cc1Nc1cnn([C@@H]2CNC[C@@H]2F)c1` [Example 883, 6-(3-cyanopyrrolo[1,2-b]pyridazin-7-yl)-N-((R)-2-fluoro-3-hydroxy-3-methylbutyl)-4-((1-((3R,4S)-4-fluoro-pyrrolidin-3-yl)-1H-pyrazol-4-yl)amino) nicotinamide]: in the assay with TNFα, the EC50 was determined as 90 nM. At IRAK4 enzyme, the IC50 is less than 1 nM.

As to `COC[C@@H]1CCCN1c1ccc(Nc2cc(-c3ccc4cc(C#N)cnn34)ncc2C(=O)NC[C@@H](F)C(C)(C)O)cn1` [Example 884, 6-(3-cyanopyrrolo[1,2-b]pyridazin-7-yl)-N-((R)-2-fluoro-3-hydroxy-3-methylbutyl)-4-((6-((S)-2-(methoxymethyl)pyrrolidin-1-yl)pyridin-3-yl)amino)nicotinamide], in the assay with TNFα, the concentration giving a half-maximal response (EC50) came to 29 nM. This compound displayed an IC50 on IRAK4 enzyme of 2 nM.

On to `COC[C@@H]1CCN(c2ccc(Nc3cc(-c4ccc5cc(C#N)cnn45)ncc3C(=O)NC[C@@H](F)C(C)(C)O)cn2)C1` [Example 885, 6-(3-cyanopyrrolo[1,2-b]pyridazin-7-yl)-N-((R)-2-fluoro-3-hydroxy-3-methylbutyl)-4-((6-((R)-3-(methoxymethyl)pyrrolidin-1-yl)pyridin-3-yl)amino) nicotinamide], for which the EC50 in the assay with TNFα worked out at 70 nM. The compound also gave an IC50 on IRAK4 enzyme of 1 nM.

Take `CC(=O)NC[C@H]1CN(c2ccc(Nc3cc(-c4ccc5cc(C#N)cnn45)ncc3C(=O)NC[C@@H](F)C(C)(C)O)cn2)CCO1` [Example 886, 4-((6-((S)-2-(acetamido-methyl)morpholino)pyridin-3-yl)amino)-6-(3-cyano-pyrrolo[1,2-b]pyridazin-7-yl)-N-((R)-2-fluoro-3-hydroxy-3-methylbutyl) nicotinamide]: the EC50 with TNFα stood at 29 nM. For the same compound, the IC50 at IRAK4 enzyme is 2 nM.

`COC(=O)NC[C@H]1CN(c2ccc(Nc3cc(-c4ccc5cc(C#N)cnn45)ncc3C(=O)NC[C@@H](F)C(C)(C)O)cn2)CCO1` [Example 887, methyl (((S)-4-(5-((2-(3-cyanopyrrolo[1,2-b]pyridazin-7-yl)-5-(((R)-2-fluoro-3-hydroxy-3-methylbutyl)carbamoyl)pyridin-4-yl)amino)pyridin-2-yl)morpholin-2-yl)methyl)carbamate]: the EC50 in the assay with TNFα amounted to 88 nM. The IC50 against IRAK4 enzyme came to 1 nM.

Consider `COC(=O)Nc1ccc(Nc2cc(-c3ccc4cc(C#N)cnn34)ncc2C(=O)NC[C@@H](F)C(C)(C)O)cn1` [Example 888, methyl (R)-(5-((2-(3-cyanopyrrolo[1,2-b]pyridazin-7-yl)-5-((2-fluoro-3-hydroxy-3-methylbutyl)carbamoyl)pyridin-4-yl)amino)pyridin-2-yl)carbamate], for which the EC50 in the assay on TNFα came to 21 nM. This compound also had an IC50 on IRAK4 enzyme of less than 1 nM.

As for `CC(=O)N1CC[C@H]1CNc1cc(-c2ccc3cc(C#N)cnn23)ncc1C(=O)NC[C@@H](F)C(C)(C)O` [Example 889, 4-((((S)-1-acetylazetidin-2-yl)methyl)amino)-6-(3-cyanopyrrolo[1,2-b]pyridazin-7-yl)-N-((R)-2-fluoro-3-hydroxy-3-methylbutyl)nicotinamide], the EC50 with TNFα is 436 nM. Besides, on IRAK4 enzyme, it took 9 nM to reach half-maximal inhibition (IC50).

As for `COC(=O)N1CC[C@H]1CNc1cc(-c2ccc3cc(C#N)cnn23)ncc1C(=O)NC[C@@H](F)C(C)(C)O` [Example 890, (S)-methyl 2-(((2-(3-cyanopyrrolo[1,2-b]pyridazin-7-yl)-5-(((R)-2-fluoro-3-hydroxy-3-methylbutyl)carbamoyl)pyridin-4-yl)amino)methyl)azetidine-1-carboxylate], the EC50 in the assay with TNFα was found to be 357 nM. Besides, the IC50 against IRAK4 enzyme was found to be 14 nM.

For the compound `CC(C)(O)[C@H](F)CNC(=O)c1cnc(-c2ccc3cc(C#N)cnn23)cc1NC[C@@H]1CCN1CC(F)(F)F` [Example 891, 6-(3-cyanopyrrolo[1,2-b]pyridazin-7-yl)-N-((R)-2-fluoro-3-hydroxy-3-methylbutyl)-4-((((S)-1-(2,2,2-trifluoroethyl)azetidin-2-yl)methyl)amino)nicotinamide], the EC50 in the assay with TNFα worked out at 249 nM. For the same compound, the IC50 on IRAK4 enzyme was 4 nM.

Turning to `CC(=O)N1CC[C@@H]1CNc1cc(-c2ccc3cc(C#N)cnn23)ncc1C(=O)NC[C@@H](F)C(C)(C)O` [Example 892, 4-((((R)-1-acetylazetidin-2-yl)methyl)amino)-6-(3-cyanopyrrolo[1,2-b]pyridazin-7-yl)-N-((R)-2-fluoro-3-hydroxy-3-methylbutyl)nicotinamide], the half-maximal effective concentration (EC50) with TNFα was 808 nM. Inhibition at IRAK4 enzyme was half-maximal at 3 nM (IC50).

On to `COC(=O)N1CC[C@@H]1CNc1cc(-c2ccc3cc(C#N)cnn23)ncc1C(=O)NC[C@@H](F)C(C)(C)O` [Example 893, (R)-methyl 2-(((2-(3-cyano-pyrrolo[1,2-b]pyridazin-7-yl)-5-(((R)-2-fluoro-3-hydroxy-3-methylbutyl)carbamoyl)pyridin-4-yl)amino)methyl)azetidine-1-carboxylate], for which the EC50 in the assay on TNFα was 217 nM. The IC50 against IRAK4 enzyme came out at 2 nM.

For the compound `CC(C)(O)[C@H](F)CNC(=O)c1cnc(-c2ccc3cc(C#N)cnn23)cc1NC[C@H]1CCN1CC(F)(F)F` [Example 894, 6-(3-cyanopyrrolo[1,2-b]pyridazin-7-yl)-N-((R)-2-fluoro-3-hydroxy-3-methylbutyl)-4-((((R)-1-(2,2,2-trifluoroethyl)azetidin-2-yl)methyl)amino)nicotinamide], the EC50 in the assay with TNFα came to 245 nM. In addition, at IRAK4 enzyme, it took 7 nM to reach half-maximal inhibition (IC50).

For the compound `CC(C)(O)[C@H](F)CNC(=O)c1cnc(-c2ccc3cc(C#N)cnn23)cc1NC1CC2(CNC2)C1` [Example 895, (R)-4-(2-azaspiro[3.3]heptan-6-ylamino)-6-(3-cyanopyrrolo[1,2-b]pyridazin-7-yl)-N-(2-fluoro-3-hydroxy-3-methyl-butyl)nicotinamide], in the assay with TNFα, the EC50 was found to be 1000 nM. The same compound returned an IC50 against IRAK4 enzyme of 2 nM.

Consider `N#CCNC(=O)c1cnc(-c2ccc3cc(C#N)cnn23)cc1Nc1cnn([C@H]2CCNC2)c1` [Example 896, (S)-N-(cyanomethyl)-6-(3-cyanopyrrolo[1,2-b]pyridazin-7-yl)-4-((1-(pyrrolidin-3-yl)-1H-pyrazol-4-yl)amino) nicotinamide], for which the EC50 with TNFα turned out to be 48 nM. Moreover, the IC50 on IRAK4 enzyme was less than 1 nM.

Take `COC(=O)N1CC2(CC(Nc3cc(-c4ccc5cc(C#N)cnn45)ncc3C(=O)NC[C@@H](F)C(C)(C)O)C2)C1` [Example 897, (R)-methyl 6-((2-(3-cyano-pyrrolo[1,2-b]pyridazin-7-yl)-5-((2-fluoro-3-hydroxy-3-methylbutyl)carbamoyl)pyridin-4-yl)amino)-2-azaspiro[3.3]heptane-2-carboxylate]: the EC50 in the assay with TNFα stood at 421 nM. Further, the midpoint of inhibition against IRAK4 enzyme, the IC50, lay at 2 nM.

For the compound `CC(C)(O)[C@H](F)CNC(=O)c1cnc(-c2ccc3cc(C#N)cnn23)cc1NC1CC2(C1)CN(CC(F)(F)F)C2` [Example 898, (R)-6-(3-cyanopyrrolo[1,2-b]pyridazin-7-yl)-N-(2-fluoro-3-hydroxy-3-methylbutyl)-4-((2-(2,2,2-trifluoroethyl)-2-aza-spiro[3.3]heptan-6-yl)amino)nicotinamide], the EC50 in the assay on TNFα is 118 nM. This compound also yielded an IC50 against IRAK4 enzyme of less than 1 nM.

As to `CC(C)(O)[C@H](F)CNC(=O)c1cnc(-c2ccc3cc(C#N)cnn23)cc1NC[C@H]1CCNC1` [Example 899, 6-(3-cyanopyrrolo[1,2-b]pyridazin-7-yl)-N-((R)-2-fluoro-3-hydroxy-3-methylbutyl)-4-((((S)-pyrrolidin-3-yl)methyl)amino)nicotinamide], in the assay on TNFα, the EC50 is more than 10000 nM. In addition, the IC50 on IRAK4 enzyme turned out to be 5 nM.

As to `COC(=O)N1CC[C@H](CNc2cc(-c3ccc4cc(C#N)cnn34)ncc2C(=O)NC[C@@H](F)C(C)(C)O)C1` [Example 900, (R)-methyl 3-(((2-(3-cyanopyrrolo[1,2-b]pyridazin-7-yl)-5-(((R)-2-fluoro-3-hydroxy-3-methylbutyl)carbamoyl)pyridin-4-yl)amino)methyl) pyrrolidine-1-carboxylate], the EC50 in the assay with TNFα amounted to 134 nM. In addition, on IRAK4 enzyme, the IC50 amounted to 2 nM.

For the compound `CC(C)(O)[C@H](F)CNC(=O)c1cnc(-c2ccc3cc(C#N)cnn23)cc1NC[C@H]1CCN(CC(F)(F)F)C1` [Example 901, 6-(3-cyanopyrrolo[1,2-b]pyridazin-7-yl)-N-((R)-2-fluoro-3-hydroxy-3-methylbutyl)-4-((((R)-1-(2,2,2-trifluoroethyl)pyrrolidin-3-yl)methyl)amino)nicotinamide], the EC50 in the assay on TNFα is 126 nM. Also, the IC50 against IRAK4 enzyme came to 3 nM.

In the case of `CC(C)(O)[C@H](F)CNC(=O)c1cnc(-c2ccc3cc(C#N)cnn23)cc1NC1CC2(CCNC2)C1` (stereo partly drawn) [Example 902, (R)-4-(6-azaspiro[3.4]octan-2-ylamino)-6-(3-cyanopyrrolo[1,2-b]pyridazin-7-yl)-N-(2-fluoro-3-hydroxy-3-methyl-butyl)nicotinamide], the EC50 with TNFα was determined as 1230 nM. Besides, the IC50 against IRAK4 enzyme came out at 1 nM.

On to `COC(=O)N1CCC2(CC(Nc3cc(-c4ccc5cc(C#N)cnn45)ncc3C(=O)NC[C@@H](F)C(C)(C)O)C2)C1` (stereo partly drawn) [Example 903, (R)-methyl 2-((2-(3-cyano-pyrrolo[1,2-b]pyridazin-7-yl)-5-((2-fluoro-3-hydroxy-3-methylbutyl)carbamoyl)pyridin-4-yl)amino)-6-azaspiro[3.4]octane-6-carboxylate], for which the EC50 in the assay with TNFα worked out at 79 nM. On IRAK4 enzyme, it took 1 nM to reach half-maximal inhibition (IC50).

On to `CC(C)(O)[C@H](F)CNC(=O)c1cnc(-c2ccc3cc(C#N)cnn23)cc1NC1CC2(CCN(CC(F)(F)F)C2)C1` (stereo partly drawn) [Example 904, (R)-6-(3-cyanopyrrolo[1,2-b]pyridazin-7-yl)-N-(2-fluoro-3-hydroxy-3-methylbutyl)-4-((6-(2,2,2-trifluoroethyl)-6-aza-spiro[3.4]octan-2-yl)amino)nicotinamide], for which the EC50 in the assay on TNFα amounted to 117 nM. At IRAK4 enzyme, this compound returned an IC50 of 1 nM.
